From patent US9433659B2, “Enhanced glycemic control using Ad36E4orf1 and AKT1 inhibitor” (priority 2012, dated 2016)

Tests used:
Type in all cases: cell-based
adiponectin = experiment: Adiponectin expression by qRT-PCR in E4orf1 and pTRE cells
Protocol: (§1) Confluent E4orf1 and pTRE cells were exposed to adipogenic media to induce differentiation. In addition the cells were treated with 0 or 5 μM of 2ATD—a specific inhibitor of AKT1 signalling. This media was refreshed every two days for up to nine days. Basal and insulin stimulated 2DG uptake was determined 24 hours post induction in the presence of 1000 ng/ml of doxycycline expression of PPARγ and adiponectin—markers of adipogenesis, by qRT-PCR.

PPARγ [1] = experiment: PPARγ protein abundance in 3T3-L1 adipocytes; conditions: 0, 1 or 5 μM ATD
Protocol: FIG. 10 is a graph showing ATD inhibits PPARγ protein abundance. 3T3-L1 adipocytes were transfected with a null vector (V5), and exposed to 10 μM TZD, or transfected with a plasmid expressing E4orf1 protein. Both groups were exposed to […] ATD.
(§2) 3T3-L1 adipocytes were transfected with a null vector and exposed to 10 μM TZD, or transfected with a plasmid expressing E4orf1 protein. Both groups were exposed to 0, 1 or 5 μM ATD. […] The glucose uptake in adipocytes was PPARγ-dependent in the presence of TZD, but not when induced by E4orf1. Thus, by down-regulating AKT-1 signaling E4orf1 can be used to enhance glucose uptake by adipocytes, without further increasing lipid accumulation.

3T3-L1 adipocytes = experiment: Glucose uptake in 3T3-L1 adipocytes exposed to ATD; conditions: null vector, 10 μM TZD; increasing concentration of ATD (0, 1 or 5 μM)
Protocol: as §2

PPARγ [2] = experiment: PPARγ expression by qRT-PCR in E4orf1 and pTRE cells
Protocol: as §1

3T3-L1 cells = experiment: Adipogenic differentiation by oil red O staining in inducible E4orf1 stable cell line; conditions: 3T3-L1 cells expressing Ad36 E4orf1 on doxycycline; 0, 1, or 5 M of 2ATD; up to nine days
Protocol: FIG. 7A-F are photomicrographs of 3T3-L1 cells. […] FIGS. 7D-F show 3T3-L1 cells that express Ad36 E4orf1 when exposed to doxycycline, treated with 0, 1, or 5 M, respectively, of 2ATD—a specific inhibitor of AKT1 signalling.
3T3-L1 cells that express Ad36 E4orf1 when exposed to doxycycline (10) were generated. […] Confluent E4orf1 and pTRE cells were exposed to adipogenic media to induce differentiation. In addition the cells were treated with 0, 1 or 5 M of 2ATD—a specific inhibitor of AKT1 signalling. This media was refreshed every two days for up to nine days. Adipogenic differentiation was verified by oil red O staining (FIGS. 7A-F).

[3] = test system: E4orf1 and pTRE inducible stable cells; experiment: Basal and insulin stimulated glucose (2DG) uptake in presence of 2-ATD
Protocol: E4orf1 and pTRE inducible stable cells were exposed to adipogenic media to induce differentiation and treated with 0 or 5 μM of 2-ATD. Basal and insulin stimulated 2DG was determined 24 hours after exposure to doxycycline (1000 ng/ml), in presence or absence of insulin (*p<0.05).

[4] = E4orf1 expressing cells, 0 or 5 μM of 2ATD
[5] = effect of E4orf1 expression (doxycycline 1000 ng/ml), qRT-PCR

Molecule | adiponectin expression (adiponectin; [4]) | PPARγ protein abundance (PPARγ [1]) | glucose uptake (3T3-L1 adipocytes) | PPARγ expression (PPARγ [2]; [4]) | PPARγ expression (PPARγ [2]; pTRE cells, 0 or 5 μM of 2ATD) | adipogenesis and lipid accumulation (oil red O staining) (3T3-L1 cells) | adiponectin expression (adiponectin; [5]) | PPARγ expression (PPARγ [2]; [5]) | glucose uptake (2DG) despite 2-ATD treatment ([3]; E4orf1 expressing cells treated with 5 μM of 2-ATD) | glucose uptake (2DG) ([3]; E4orf1 expression compared to pTRE, 24 hours after doxycycline (1000 ng/ml), basal and insulin stimulated)
Nc1nncs1 [2-ATD, 2-Aminothiadiazole] | significantly reduced | reduced PPARγ protein abundance | significantly reduced glucose uptake | significantly reduced PPARγ expression | significantly reduced PPARγ expression | blocked adipogenesis and lipid accumulation |  |  |  | 
E4orf1: Adenovirus-36 E4orf1 protein, SEQ ID NO:2; expressed in 3T3-L1 cells by doxycycline induction or plasmid (protein, listed as Human adenovirus) MAESLYAFIDSPGGIAPVQEGASNRYIFFCPESFHIPPHGVILLHLRVSVLVPTGYQGRFMALNDYHARGILTQSDVIFAGRRHDLSVLLFNHTDRFLYVREGHPVGTLLLERVIFPSVRIATLV |  |  |  |  |  |  | significantly increased the expression of PPARγ and adiponectin | significantly increased the expression of PPARγ and adiponectin | continued to show significantly greater glucose uptake | increased glucose uptake compared to that in pTRE
